Reference: patent US10292385B2, “Method for supression of infection by plant virus” (priority 2014, dated 2019)

How the values were obtained:
TYLCV = TYLCV infection suppression test on chemical-sprayed cherry tomatoes exposed to viruliferous adult sweetpotato whiteflies (Test Example 1); type: in vivo, tomato yellow leaf curl virus (TYLCV); conditions: for Percentage of TYLCV infection suppressed, Determined value: cherry tomato, 16 plants, PCR and symptom after 30 days
Excerpt: Seedlings of cherry tomatoes (cultivar: ‘YellowPear’) were transferred to small pots and grown until 2- to 2.5-leaf stages. A chemical having been adjusted to a predetermined concentration by dilution was sprayed thereon in a sufficient amount (the amount was such that the chemical solution dripped from the leaves), and the plants on which the diluted chemical has been sprayed were dried under a shielded condition in a greenhouse. In an aluminum-made large test container (length×width×height =68×44×82 cm, the upper surface and four side surfaces thereof are present as mesh surfaces for aeration), 16 pots containing the chemical-sprayed cherry tomatoes were equally arranged, and installation stands for releasing adult sweetpotato whiteflies were arranged at two positions on a diagonal line in the container. Chemical-resistant adult sweetpotato whiteflies to chemicals such as organophosphorus insecticides, carbamate insecticides, synthetic pyrethroid insecticides, ecdysis regulating insecticides, and neonicotinoid insecticides (hereinafter, chemical resistant adult sweetpotato whiteflies is simply referred to as adult sweetpotato whiteflies) were released for 3 days to suck a cherry tomato for TYLCV acquisition, so that the whiteflies were acquired TYLCV. Note that the chemical-resistant sweetpotato whiteflies used were kindly provided from Kumamoto Agricultural Research Center. The cherry tomato leaves were cut out together with the adult sweetpotato whiteflies settled on the infected cherry tomato, and equally left on the two flying sources in the aluminum-made container. After the leaves wither up, the adult sweetpotato whiteflies spontaneously spread inside the test container. The adult sweetpotato whiteflies were equally scattered to the two flying sources such that the number of individuals released was approximately 1 or 2.5 per plant (e.g.: in the case where the number of the adult sweetpotato whitefly individuals is approximately 1 per plant, 8 whiteflies×2 positions=16 whiteflies in the test container). The release period was set to 7 days. In conducting the test, any test chemical was at a practical concentration. […]

adult whiteflies = assay: Observation of adult whitefly survival after spraying compound A; type: in vivo, sweetpotato whiteflies; conditions: one week after spraying
Excerpt: From the above, it is conceivable that the present invention greatly enhances the effect of suppressing plant virus infection attained by the compound A.

“glycerin diacetomonolaurate [compound A]” was tested, and the “Percentage of TYLCV infection suppressed, Corrected value” (TYLCV; 1.0 whiteflies/plant, corrected with the untreatment of test plot 5) was “(50.0) %”, the “Percentage of TYLCV infection suppressed, Determined value” (TYLCV; chemical-resistant adult sweetpotato whiteflies released 1.0 whiteflies/plant for 7 days) was 62.5% and the “Percentage of TYLCV infection suppressed, Determined value” (TYLCV; chemical-resistant adult sweetpotato whiteflies released 2.5 whiteflies/plant for 7 days) was 50.0%. For the same substance, the “TYLCV infection suppressing effect (in words)” value (TYLCV; whiteflies released for 7 days on sprayed cherry tomato, corrected value compared with theoretical value) was “suppressed to some extent” and the “survival of adult whiteflies after spraying” value (adult whiteflies) was “adult whiteflies survived one week thereafter”.
